The values below are quoted from earlier work in US20260355187A1, “LURBINECTEDIN AND DOXORUBICIN COMBINATION” (PHARMA MAR, S.A., priority 2022, published 2026).

Structures can show the parent of a compound that is named as a salt. Some results are limits rather than exact numbers.

What is called IC50 is the concentration needed to halve the response being measured.

Data set [1] has as its system cytochrome P450 CYP3A4. The following applies: role: substrate.
Data set [2] concerns CYP2D6. Particulars: role: substrate.
In data set [3] the test system is P-glycoprotein (P-gp). Particulars: role: substrate.
In data set [4] the test system is CYP3A4, CYP2D6, and/or P-gp. The following applies: role: substrate; inhibitors e.g. verapamil.
Data set [5] deals with tumour-derived cell lines. Particulars: in vitro.
For data set [6], the system named is NCI panel of 36 cell lines.
Data set [7] concerns CYP3A4. Particulars: role: substrate; human microsomes, in vitro.
Data set [8] deals with CYP2E1. Particulars: role: substrate; human microsomes, in vitro; after CYP3A4.
Data set [9] deals with other CYP isoenzymes. The following applies: role: substrate; human microsomes, in vitro.
The subject of data set [10] is tumour-associates macrophages. Particulars: by inhibiting active transcription.

On to `COc1cccc2c1C(=O)c1c(O)c3c(c(O)c1C2=O)C[C@@](O)(C(=O)CO)C[C@@H]3O[C@H]1C[C@H](N)[C@H](O)[C@H](C)O1` [doxorubicin, 5,12-Naphthacenedione, 10-[(3-amino-2,3,6-trideoxy-α-L-lyxo-hexopyranosyl)oxy]-7,8,9,10tetrahydro-6,8,11-trihydroxy-8-(hydroxylacetyl)-1-methoxy-, hydrochloride (8S-cis)], for which the “Substrate of CYP3A4” value in data set [1] is recorded as “major substrate”. In addition, in data set [2], the “Substrate of CYP2D6” value is on record as “major substrate”. Also, the “Substrate of P-glycoprotein (P-gp)” value in [3] is recorded as “major substrate”. Further, the “Clinical interaction with inhibitors of CYP3A4, CYP2D6, and/or P-gp” value in data set [4] is “increased concentration and clinical effect of doxorubicin”.
`COc1ccc2[nH]c3c(c2c1)CCN[C@]31CS[C@@H]2c3c(OC(C)=O)c(C)c4c(c3[C@H](COC1=O)N1[C@@H]2[C@H]2c3c(cc(C)c(OC)c3O)C[C@@H]([C@@H]1O)N2C)OCO4` [lurbinectedin]: the “half maximal inhibitory concentration (IC50), range in words” value in data set [5] (broad selection of tumour-derived cell lines) is on record as “low to very low nanomolar range”. Further, the IC50 in data set [5] (median over tumour-derived cell lines) was about 0.1 nM. Besides, the COMPARE analysis result in [6] (against other 98 standard anticancer agents) is “negative”. For the same molecule, in [6] (versus trabectedin), the “COMPARE correlation with trabectedin (S-rank)” value is over 0.8. Further, in data set [7], the “Contribution of CYP3A4 to metabolism” value was “major CYP isoform involved in the metabolism”. Besides, the “Contribution of CYP2E1 to metabolism” value in data set [8] was “followed by CYP2E1”. In data set [9], the “Estimated contribution of the other CYP isoenzymes to metabolism” value is “negligible”. Further, in data set [10], the “Cytokine production in tumour-associated macrophages” value was “downregulates IL-6, IL-8, CCL2, and VEGF”.
